How the values were obtained:
A549/ATCC = assay: NCI-60 screening (SRB); format: cell-based, human; conditions: five-dose
MCF7 = assay: NCI-60 screening (SRB); format: cell-based, human; conditions: five-dose
NCI-H522 = assay: NCI-60 screening (SRB); format: cell-based, human; conditions: five-dose
NCI/ADR-RES = assay: NCI-60 screening (SRB); format: cell-based, human; conditions: five-dose
HCT-116 = assay: NCI-60 screening (SRB); format: cell-based, human; conditions: five-dose
HT29 = assay: NCI-60 screening (SRB); format: cell-based, human
COLO 205 = assay: NCI-60 screening (SRB); format: cell-based, human; conditions: five-dose
NCI-H460 = assay: NCI-60 screening (SRB); format: cell-based, human; conditions: five-dose
NCI-H226 = assay: NCI-60 screening (SRB); format: cell-based, human; conditions: five-dose
MDA-MB-468 = assay: NCI-60 screening (SRB); format: cell-based, human; conditions: five-dose
NCI-H322M = assay: NCI-60 screening (SRB); format: cell-based, human; conditions: five-dose
OVCAR-3 = assay: NCI-60 screening (SRB); format: cell-based, human; conditions: five-dose
HL-60(TB) = assay: NCI-60 screening (SRB); format: cell-based, human; conditions: HL-60(TB), five-dose
KM12 = assay: NCI-60 screening (SRB); format: cell-based, human; conditions: five-dose
786-0 = assay: NCI-60 screening (SRB); format: cell-based, human; conditions: five-dose
Prostate cancer = assay: NCI-60 screening (SRB), subpanel; format: cell-based
Description: (§1) The experimental data allow the assessment of the cytostatic effect, indicated by growth inhibition values ranging between 0 and 100, as well as of the cytotoxic effect, indicated by negative values.
(§2) The mean GI50 (molar concentration of the compound that inhibits 50% net cell growth), TGI (molar concentration of the compound leading to the total inhibition), and LC50 (molar concentration of the compound leading to 50% net cell death (presented in negative logarithm)) values across each cell line are shown in Table 2.
(§3) The selectivity index (SI), calculated as the ratio between the full panel MG_MID60 (μM) of compounds 4, 6, and 9 by their respective subpanels MG_MID of the cell line (μM), was introduced as a quantification tool for the selectivity of each compound in terms of anticancer effect (Table 3).
(§4) Primary anticancer assays were performed according to the NCI protocol, as described elsewhere (see e.g., http://dtp.nci.nih.gov accessed on 1 November 2018). The compounds were added at a single concentration, and the cell cultures were incubated for 48 h. The end point determinations were made with a protein-binding dye, sulforhodamine B (SRB). […] The percentage of growth was evaluated spectrophotometrically versus controls not treated with test agents after 48 h exposure and using SRB protein assay to estimate cell viability or growth. Three antitumor activity dose-response parameters were calculated for each cell line. Furthermore, mean graph midpoints (MG_MID) were calculated for each of the parameters, giving an average activity parameter over all cell lines for the tested compound. For the MG_MID calculation, insensitive cell lines were included with the highest concentration tested.

Melanoma = assay: NCI-60 screening (SRB), subpanel; format: cell-based
Description: as §1, §2, §3, §4

Leukemia = assay: NCI-60 screening (SRB), subpanel; format: cell-based
Description: as §1, §2, §3, §4

Renal Cancer = assay: NCI-60 screening (SRB), subpanel; format: cell-based
Description: as §1, §2, §3, §4

NSC lung cancer = assay: NCI-60 screening (SRB), subpanel; format: cell-based
Description: as §1, §2, §3, §4

Breast cancer = assay: NCI-60 screening (SRB), subpanel; format: cell-based
Description: as §1, §2, §3, §4

Colon Cancer = assay: NCI-60 screening (SRB), subpanel; format: cell-based
Description: as §1, §2, §3, §4

Ovarian cancer = assay: NCI-60 screening (SRB), subpanel; format: cell-based
Description: as §1, §2, §3, §4

ACHN = assay: NCI-60 screening (SRB); format: cell-based, human; conditions: five-dose
SNB-19 = assay: NCI-60 screening (SRB); format: cell-based, human; conditions: five-dose
[1] = Homo sapiens, read-out: LC50 (the source's name)

In the case of `CCN1CCN(C(=O)[C@]23CCC(C)(C)C[C@H]2C2=CC[C@@H]4[C@@]5(C)C/C(=C/c6cccnc6)C(=O)C(C)(C)[C@@H]5CC[C@@]4(C)[C@]2(C)CC3)CC1` [Compound 6], the GI50 (A549/ATCC; Homo sapiens) was 2.62 µM, the CC50 (A549/ATCC; [1]) was > 100 µM and the TGI (A549/ATCC) was 13.4 µM. It also gave a GI50 (MCF7; Homo sapiens) of 1.4 µM, a CC50 (MCF7; [1]) of 6.71 µM and a TGI (MCF7) of 3.07 µM. The GI50 (NCI-H522; Homo sapiens) was 1.61 µM, the CC50 (NCI-H522; [1]) was 8.73 µM and the TGI (NCI-H522) was 3.75 µM. The GI50 (NCI/ADR-RES; Homo sapiens) was 1.57 µM, the CC50 (NCI/ADR-RES; [1]) was 7.6 µM and the TGI (NCI/ADR-RES) was 3.46 µM. The GI50 (HCT-116; Homo sapiens) was 1.01 µM, the CC50 (HCT-116; [1]) was 4.89 µM and the TGI (HCT-116) was 2.22 µM. It also gave a GI50 (HT29; Homo sapiens, HT-29, five-dose) of 1.71 µM, a CC50 (HT29; Homo sapiens, HT-29, five-dose, read-out: LC50 (the source's name)) of 44.5 µM and a TGI (HT29; five-dose) of 4.67 µM. The GI50 (COLO 205; Homo sapiens) was 1.89 µM, the CC50 (COLO 205; [1]) was > 100 µM and the TGI (COLO 205) was 4.74 µM. For the same molecule, the GI50 (NCI-H460; Homo sapiens) was 1.39 µM, the CC50 (NCI-H460; [1]) was 6.2 µM and the TGI (NCI-H460) was 2.93 µM. For the same molecule, the GI50 (NCI-H226; Homo sapiens) was 1.76 µM, the TGI (NCI-H226) was 3.80 µM and the GI50 (MDA-MB-468; Homo sapiens) was 1.28 µM. The CC50 (MDA-MB-468; [1]) was 19.7 µM, the TGI (MDA-MB-468) was 3.94 µM and the GI50 (NCI-H322M; Homo sapiens) was 2.87 µM. For the same molecule, the CC50 (NCI-H322M; [1]) was 33.9 µM, the TGI (NCI-H322M) was 9.25 µM and the GI50 (OVCAR-3; Homo sapiens) was 1.51 µM. The CC50 (OVCAR-3; [1]) was 5.73 µM, the TGI (OVCAR-3) was 2.95 µM and the TGI (HL-60(TB)) was 9.02 µM. The GI50 (HL-60(TB); Homo sapiens) was 2.1 µM, the CC50 (HL-60(TB); [1]) was > 100 µM and the GI50 (KM12; Homo sapiens) was 1.58 µM. It also gave a CC50 (KM12; [1]) of 6.75 µM, a TGI (KM12) of 3.26 µM and a GI50 (786-0; Homo sapiens) of 1.6 µM. It also gave a CC50 (786-0; [1]) of 5.91 µM, a TGI (786-0) of 3.08 µM and a GI50 (Prostate cancer; Homo sapiens, Prostate cancer subpanel, five-dose, read-out: GI50 MG_MID) of 1.42 µM. For the same molecule, the CC50 (Prostate cancer; Homo sapiens, Prostate cancer subpanel, five-dose, read-out: LC50 MG_MID) was 8.01 µM, the “TGI MG_MID” value (Prostate cancer; Prostate cancer subpanel, five-dose) was 3.34 µM and the “SI (TGI)” value (Prostate cancer; Prostate cancer, MG_MID60/subpanel MG_MID) was 1.89. The GI50 (Melanoma; Homo sapiens, Melanoma subpanel, five-dose, read-out: GI50 MG_MID) was 1.54 µM, the CC50 (Melanoma; Homo sapiens, Melanoma subpanel, five-dose, read-out: LC50 MG_MID) was 9.2 µM and the “TGI MG_MID” value (Melanoma; Melanoma subpanel, five-dose) was 3.21 µM. The “SI (TGI)” value (Melanoma; Melanoma, MG_MID60/subpanel MG_MID) was 1.96, the CC50 (Leukemia; Homo sapiens, Leukemia subpanel, five-dose, read-out: LC50 MG_MID) was > 100 µM and the “TGI MG_MID” value (Leukemia; Leukemia subpanel, five-dose) was 5.10 µM. For the same molecule, the “SI (TGI)” value (Leukemia; Leukemia, MG_MID60/subpanel MG_MID) was 0.30, the GI50 (Renal Cancer; Homo sapiens, Renal cancer subpanel, five-dose, read-out: GI50 MG_MID) was 1.97 µM and the LC50 (50% net cell kill) (Renal Cancer; Homo sapiens, Renal cancer subpanel, five-dose, read-out: LC50 MG_MID) was 20.2 µM. For the same molecule, the “SI (TGI)” value (Renal Cancer; Renal Cancer, MG_MID60/subpanel MG_MID) was 0.96, the “TGI MG_MID” value (Renal Cancer; Renal cancer subpanel, five-dose) was 6.54 µM and the GI50 (NSC lung cancer; Homo sapiens, NSC lung cancer subpanel, five-dose, read-out: GI50 MG_MID) was 1.91 µM. For the same molecule, the CC50 (NSC lung cancer; Homo sapiens, NSC lung cancer subpanel, five-dose, read-out: LC50 MG_MID) was 29.7 µM, the “TGI MG_MID” value (NSC lung cancer; NSC lung cancer subpanel, five-dose) was 5.83 µM and the “SI (TGI)” value (NSC lung cancer; NSCL cancer, MG_MID60/subpanel MG_MID) was 1.08. The “TGI MG_MID” value (Breast cancer; Breast cancer subpanel, five-dose) was 5.30 µM, the “SI (TGI)” value (Breast cancer; Breast cancer, MG_MID60/subpanel MG_MID) was 1.17 and the GI50 (Breast cancer; Homo sapiens, Breast cancer subpanel, five-dose, read-out: GI50 MG_MID) was 1.67 µM. The CC50 (Breast cancer; Homo sapiens, Breast cancer subpanel, five-dose, read-out: LC50 MG_MID) was 39.6 µM, the “TGI MG_MID” value (Colon Cancer; Colon Cancer subpanel, five-dose) was 3.51 µM and the “SI (TGI)” value (Colon Cancer; Colon Cancer, MG_MID60/subpanel MG_MID) was 1.99. For the same molecule, the GI50 (Colon Cancer; Homo sapiens, Colon Cancer subpanel, five-dose, read-out: GI50 MG_MID) was 1.52 µM, the CC50 (Colon Cancer; Homo sapiens, Colon Cancer subpanel, five-dose, read-out: LC50 MG_MID) was 25.4 µM and the GI50 (Ovarian cancer; Homo sapiens, Ovarian cancer subpanel, five-dose, read-out: GI50 MG_MID) was 2.15 µM. For the same molecule, the CC50 (Ovarian cancer; Homo sapiens, Ovarian cancer subpanel, five-dose, read-out: LC50 MG_MID) was 36.2 µM, the “SI (TGI)” value (Ovarian cancer; Ovarian Cancer, MG_MID60/subpanel MG_MID) was 1.52 and the “TGI MG_MID” value (Ovarian cancer; Ovarian cancer subpanel, five-dose) was 4.14 µM. The GI50 (ACHN; Homo sapiens) was 2.6 µM, the LC50 (ACHN; Homo sapiens) was 32.4 µM and the TGI (ACHN) was 10.5 µM. The GI50 (SNB-19; Homo sapiens) was 1.68 µM, the CC50 (SNB-19; [1]) was 7.12 µM and the TGI (SNB-19) was 3.46 µM.

Source: article PMC8536124 (International Journal of Molecular Sciences, 2021)
